From the NIST ThermoML archive (doi:10.1016/j.fluid.2014.08.005)
± gives the expanded uncertainty stated by the source.

What was measured:
[1] = refractive index (Na D-line) (dimensionless); settings: 101.33 kPa, Liquid, Standard Abbe refractometry
[2] = for viscosity / mass density: 101.33 kPa, Liquid; for viscosity: Cone and plate viscometry; for mass density: Vibrating tube method; for surface tension liquid-gas: Pendant drop shape

CCCC[N+](C)(C)C.O=S(=O)([N-]S(=O)(=O)C(F)(F)F)C(F)(F)F [butyltrimethylammonium bis(trifluoromethylsulfonyl)imide]
Settings | mass density, [2] [kg/m3] | refractive index, [1] | surface tension liquid-gas, [2] [mN/m] | viscosity, [2] [mPa·s]
283.15 K | 1407.8 ± 1.1 | 1.4122 ± 0.00037 | – | 254.2 ± 8.5
288.15 K | 1403.2 ± 1.1 | 1.41083 ± 0.00037 | – | 184.6 ± 5
293.15 K | 1398.7 ± 1.1 | 1.40945 ± 0.00037 | – | 137.7 ± 2.9
293.2 K | – | – | 33.4 ± 0.4 | –
298.15 K | 1394.2 ± 1.1 | 1.40818 ± 0.00037 | – | 105.2 ± 1.7
298.2 K | – | – | 33.2 ± 0.4 | –
303.15 K | 1389.8 ± 1.1 | 1.40676 ± 0.00037 | – | 82 ± 1
303.2 K | – | – | 33 ± 0.4 | –
308.15 K | 1385.4 ± 1.1 | 1.40538 ± 0.00037 | – | 65.2 ± 0.7
313.1 K | – | – | 32.5 ± 0.4 | –
313.15 K | 1381 ± 1.1 | 1.40405 ± 0.00037 | – | 52.7 ± 0.5
318.15 K | 1376.6 ± 1.1 | 1.40273 ± 0.00037 | – | 43.2 ± 0.4
323.1 K | – | – | 32 ± 0.4 | –
323.15 K | 1372.3 ± 1.1 | 1.40142 ± 0.00037 | – | 35.9 ± 0.4
328.15 K | 1368 ± 1.1 | 1.40006 ± 0.00037 | – | 30.2 ± 0.3
333.1 K | – | – | 31.5 ± 0.4 | –
333.15 K | 1363.7 ± 1.1 | 1.39877 ± 0.00037 | – | 25.7 ± 0.3
338.15 K | 1359.5 ± 1.1 | 1.39747 ± 0.00037 | – | 22 ± 0.2
343.15 K | 1355.2 ± 1.1 | 1.39616 ± 0.00037 | – | 19.1 ± 0.2
348.15 K | 1351 ± 1.1 | 1.39486 ± 0.00037 | – | 16.7 ± 0.2
353.15 K | 1346.8 ± 1.1 | 1.39358 ± 0.00037 | – | 14.7 ± 0.2

CC[S+](CC)CC.O=S(=O)([N-]S(=O)(=O)C(F)(F)F)C(F)(F)F [triethylsulfonium bis((trifluoromethyl)sulfonyl)imide]
Settings | mass density, [2] [kg/m3] | refractive index, [1] | surface tension liquid-gas, [2] [mN/m] | viscosity, [2] [mPa·s]
283.15 K | 1477 ± 1.2 | 1.43056 ± 0.00037 | – | 64.4 ± 0.6
288.15 K | 1472 ± 1.2 | 1.42906 ± 0.00037 | – | 51.1 ± 0.5
293.15 K | 1467.1 ± 1.2 | 1.42765 ± 0.00037 | – | 41.1 ± 0.4
293.3 K | – | – | 35.5 ± 0.4 | –
298.15 K | 1462.1 ± 1.2 | 1.42632 ± 0.00037 | – | 33.9 ± 0.3
298.2 K | – | – | 35.2 ± 0.4 | –
303.15 K | 1457.3 ± 1.2 | 1.42472 ± 0.00037 | – | 28.2 ± 0.3
303.2 K | – | – | 35 ± 0.4 | –
308.15 K | 1452.4 ± 1.2 | 1.42325 ± 0.00037 | – | 23.8 ± 0.2
313.1 K | – | – | 34.4 ± 0.4 | –
313.15 K | 1447.6 ± 1.2 | 1.42185 ± 0.00037 | – | 20.3 ± 0.2
318.15 K | 1442.8 ± 1.2 | 1.42044 ± 0.00037 | – | 17.5 ± 0.2
323 K | – | – | 34 ± 0.4 | –
323.15 K | 1438.1 ± 1.1 | 1.41906 ± 0.00037 | – | 15.2 ± 0.2
328.15 K | 1433.4 ± 1.1 | 1.41767 ± 0.00037 | – | 13.4 ± 0.1
333.1 K | – | – | 33.4 ± 0.4 | –
333.15 K | 1428.7 ± 1.1 | 1.41629 ± 0.00037 | – | 11.8 ± 0.1
338.15 K | 1424 ± 1.1 | 1.4149 ± 0.00037 | – | 10.5 ± 0.1
343.1 K | – | – | 32.9 ± 0.4 | –
343.15 K | 1419.4 ± 1.1 | 1.41353 ± 0.00037 | – | 9.4 ± 0.1
348.15 K | 1414.8 ± 1.1 | 1.41215 ± 0.00037 | – | 8.5 ± 0.1
353.15 K | 1410.2 ± 1.1 | 1.41077 ± 0.00037 | – | 7.7 ± 0.1

CCCC[N+](C)(CCCC)CCCC.O=S(=O)([N-]S(=O)(=O)C(F)(F)F)C(F)(F)F [tributylmethylammonium bis((trifluoromethyl)sulfonyl)imide]
Settings | mass density, [2] [kg/m3] | refractive index, [1] | surface tension liquid-gas, [2] [mN/m] | viscosity, [2] [mPa·s]
283.15 K | 1276 ± 1.1 | 1.4308 ± 0.00037 | – | 2049.8 ± 150
288.15 K | 1271.7 ± 1.1 | 1.42933 ± 0.00037 | – | 1264 ± 83
293.15 K | 1267.3 ± 1.1 | 1.42787 ± 0.00037 | – | 819.2 ± 47
293.3 K | – | – | 30.8 ± 0.4 | –
298.15 K | 1262.8 ± 1.1 | 1.42643 ± 0.00037 | – | 538.9 ± 26
298.2 K | – | – | 30.6 ± 0.4 | –
303.15 K | 1258.4 ± 1.1 | 1.42491 ± 0.00037 | – | 369.3 ± 15
303.2 K | – | – | 30.2 ± 0.4 | –
308.15 K | 1254.1 ± 1.1 | 1.42338 ± 0.00037 | – | 260.4 ± 8.8
313.15 K | 1249.9 ± 1.1 | 1.42194 ± 0.00037 | – | 189.5 ± 5.2
313.2 K | – | – | 29.7 ± 0.4 | –
318.15 K | 1245.8 ± 1.1 | 1.42047 ± 0.00037 | – | 139.6 ± 3
323.15 K | 1241.7 ± 1.1 | 1.41902 ± 0.00037 | – | 105.6 ± 1.7
323.2 K | – | – | 29.1 ± 0.4 | –
328.15 K | 1237.6 ± 1.1 | 1.41758 ± 0.00037 | – | 81.5 ± 1
333.15 K | 1233.6 ± 1.1 | 1.41613 ± 0.00037 | – | 64.1 ± 0.6
338.15 K | 1229.5 ± 1.1 | 1.41468 ± 0.00037 | – | 51.1 ± 0.5
343.15 K | 1225.5 ± 1.1 | 1.41324 ± 0.00037 | – | 41.4 ± 0.4
348.15 K | 1221.5 ± 1.1 | 1.4118 ± 0.00037 | – | 34 ± 0.3
353.15 K | 1217.5 ± 1.1 | 1.4104 ± 0.00037 | – | 28.3 ± 0.3

CC[S+](C)CC.O=S(=O)([N-]S(=O)(=O)C(F)(F)F)C(F)(F)F [diethylmethylsulfonium bis[(trifluoromethyl)sulfonyl]imide]
Settings | mass density, [2] [kg/m3] | refractive index, [1] | surface tension liquid-gas, [2] [mN/m] | viscosity, [2] [mPa·s]
283.15 K | 1517.3 ± 1.2 | 1.42745 ± 0.00037 | – | 78.3 ± 0.9
288.15 K | 1512.2 ± 1.2 | 1.42597 ± 0.00037 | – | 62.1 ± 0.6
293.15 K | 1507.2 ± 1.2 | 1.42452 ± 0.00037 | – | 49.9 ± 0.5
293.2 K | – | – | 35.7 ± 0.4 | –
298.15 K | 1502.3 ± 1.2 | 1.42325 ± 0.00037 | – | 41.1 ± 0.4
298.2 K | – | – | 35.5 ± 0.4 | –
303.15 K | 1497.3 ± 1.2 | 1.42168 ± 0.00037 | – | 34.1 ± 0.3
303.2 K | – | – | 35.3 ± 0.4 | –
308.15 K | 1492.4 ± 1.2 | 1.42026 ± 0.00037 | – | 28.7 ± 0.3
313.1 K | – | – | 34.8 ± 0.4 | –
313.15 K | 1487.6 ± 1.2 | 1.41886 ± 0.00037 | – | 24.4 ± 0.2
318.15 K | 1482.8 ± 1.2 | 1.41744 ± 0.00037 | – | 21 ± 0.2
323.1 K | – | – | 34.4 ± 0.4 | –
323.15 K | 1478 ± 1.2 | 1.41606 ± 0.00037 | – | 18.2 ± 0.2
328.15 K | 1473.2 ± 1.2 | 1.41468 ± 0.00037 | – | 15.9 ± 0.2
333.1 K | – | – | 33.9 ± 0.4 | –
333.15 K | 1468.5 ± 1.2 | 1.41331 ± 0.00037 | – | 14 ± 0.1
338.15 K | 1463.8 ± 1.2 | 1.41195 ± 0.00037 | – | 12.5 ± 0.1
343.1 K | – | – | 33.4 ± 0.4 | –
343.15 K | 1459.1 ± 1.2 | 1.41058 ± 0.00037 | – | 11.1 ± 0.1
348.15 K | 1454.5 ± 1.2 | 1.40925 ± 0.00037 | – | 10 ± 0.1
353.15 K | 1449.8 ± 1.2 | 1.40793 ± 0.00037 | – | 9 ± 0.1
